Results as given in patent publication US8183293B2, “Phenyl acetic acid derivatives” (Amgen Inc., priority 2007, dated 2012).
“Also recorded” adds a separate entry of the source. Where two headings read alike, the source gives them in different places.

Key:
human CRTH2 = molecular target: T1, human CRTH2 (Homo sapiens, UniProt Q9Y5Y4); test: Human CRTH2 binding assay (3H-PGD2, 293(124) cells)
T1 construct: Full-length human CRTH2 cDNA was generated by polymerase chain reaction (PCR); expressed in transfected cells; host or cells: 293 cells stably transfected with pHLT124 (pCDNA3.1(+)), named 293(124)
T1 sequence (Q9Y5Y4 1-395): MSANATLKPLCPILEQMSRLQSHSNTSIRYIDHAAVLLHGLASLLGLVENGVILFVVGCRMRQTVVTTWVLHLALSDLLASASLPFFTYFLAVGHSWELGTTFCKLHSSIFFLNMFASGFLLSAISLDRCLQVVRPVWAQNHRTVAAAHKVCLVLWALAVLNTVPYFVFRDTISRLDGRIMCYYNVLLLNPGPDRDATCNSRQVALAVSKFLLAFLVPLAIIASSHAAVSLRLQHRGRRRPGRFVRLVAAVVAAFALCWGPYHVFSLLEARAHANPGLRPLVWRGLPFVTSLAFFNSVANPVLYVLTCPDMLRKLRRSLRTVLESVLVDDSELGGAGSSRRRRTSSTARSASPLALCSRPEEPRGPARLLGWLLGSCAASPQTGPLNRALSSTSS
Protocol: Full-length human CRTH2 cDNA was generated by polymerase chain reaction (PCR) using human genomic DNA as template and subsequently cloned into pCDNA3.1(+) (Invitrogen), generating a CRTH2 expression plasmid pHLT124. The plasmid was transfected into 293 cells, […], using LipofectAMINE™ reagents (Gibco/BRL). G418 ([…]) was added to the culture 48 h after transfection and cells were maintained under selection for 3 weeks to ensure that all surviving cells stably expressed CRTH2. These cells are labeled as 293(124) hereafter.
^3H-PGD2 binding assay was performed using 293(124) cells. […] Each assay contained 25,000 cells, appropriate amount of test compound when necessary and a mixture of 1 nM ^3H-PGD2 (Amersham Pharmacia Biotech) and 30 nM of unlabeled PGD2 (Cayman Chemicals) in […] final volume. The cell mixture was incubated at room temperature for 2.5 h with shaking and the cells were separated from free ^3H-PGD2 and transferred onto a filter plate using a cell harvester. Radioactivity bound to the cells was measured on a liquid scintillation counter. Nonspecific binding was determined in the presence of […] of unlabeled PGD2.

DP = molecular target: T2, DP (Homo sapiens, UniProt Q13258); test: DP activity (IC50); assay type: binding
T2 sequence (Q13258 1-359): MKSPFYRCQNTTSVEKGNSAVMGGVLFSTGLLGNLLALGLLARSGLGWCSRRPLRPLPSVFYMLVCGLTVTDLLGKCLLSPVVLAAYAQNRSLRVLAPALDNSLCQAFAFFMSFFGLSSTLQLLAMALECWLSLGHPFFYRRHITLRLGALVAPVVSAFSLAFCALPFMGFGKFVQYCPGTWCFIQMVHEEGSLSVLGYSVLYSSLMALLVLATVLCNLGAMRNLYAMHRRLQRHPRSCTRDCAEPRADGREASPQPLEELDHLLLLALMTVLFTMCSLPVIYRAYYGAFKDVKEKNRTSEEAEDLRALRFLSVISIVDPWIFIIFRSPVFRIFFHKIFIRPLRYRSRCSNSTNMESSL

[1] = In vitro covalent binding to protein, rat liver microsomes; assay type: in vitro ADME; conditions: in the presence of NADPH cofactor
Protocol: (§1) The propensity of AMG 009 metabolism to generate reactive metabolites was conducted in studies to evaluate in vitro covalent binding to protein by standardized methods (Day, et al., J. Pharmacol. Toxicol. Methods., 52, 278-285 (2005)).

[2] = In vitro covalent binding to protein, human liver microsomes; assay type: in vitro ADME; conditions: in the presence of NADPH cofactor
Protocol: as §1

[3] = system: antigen-induced airway response; test: Sheep airway response model of asthma; assay type: in vivo
Excerpt: (§2) The sheep and guinea pig models employed herein are disclosed in publications such as Abraham, W. M., Sheep Models of Allergic Bronchoconstriction)(in Allergy and Allergic Disease 2:1045 1977); Isenberg-Feig, H et al., Animal Models of Allergic Asthma (in Current Allergy and Asthma Reports 2003, 3:70-78); Abraham, W. M., et al. Am J Respir Crit. Care Med vol. 159. pp. 1205-1214, 1999; Abraham, W. M. et al, Am J Respir Crit. Care Med vol. 169. pp. 97-104, 2004; and Jones, T. R. et al Can. J. Physiol. Pharmacol. 73: 191-201 1995.

[4] = system: PGD2-induced airway constriction; test: Guinea pig model of airway constriction; assay type: in vivo; conditions: animals pretreated with aerosolized PGD2 at doses as high as 0.625 mg/mL, FIG. 5
Excerpt: as §2, with “FIGS. 6A and 6B are graphs comparing the efficacy of AMG 009 (FIG. 6A) and Example Compound 14 (FIG. 6A) in the Guinea Pig Model of airway constriction. The” for “The”

[5] = Hygroscopicity of polymorph; assay type: physicochemical
[6] = buffer, read-out: CRTH2 IC50 (nM) Buffer
[7] = plasma, read-out: CRTH2 IC50 (nM) Plasma
[8] = buffer, read-out: DP IC50 (nM) Buffer
[9] = plasma, read-out: DP IC50 (nM) Plasma
[10] = whole blood, read-out: CRTH2 IC50 (nM) whole blood
[11] = whole blood, read-out: DP IC50 (nM) whole blood

Row | SMILES | IC50 (human CRTH2; [6]) [nM] | IC50 (human CRTH2; [7]) [nM] | IC50 (DP; [8]) [nM] | IC50 (DP; [9]) [nM] | also measured
1 | CC(C)(C)NC(=O)c1ccc(Oc2cc(F)c(CC(=O)O)cc2Cl)c(NS(=O)(=O)c2ccc(OC(F)(F)C(F)F)cc2Cl)c1 | 4.6 | 10.9 | 5.9 | 52.5 | –
2 | Cc1ccc(S(=O)(=O)Nc2cc(C(=O)NC(C)(C)C)ccc2Oc2cc(F)c(CC(=O)O)cc2Cl)c(Cl)c1 | 3.3 | 6.1 | 5.6 | 17.2 | –
3 | CC(C)(C)NC(=O)c1ccc(Oc2cc(F)c(CC(=O)O)cc2Cl)c(NS(=O)(=O)c2ccc(C(F)(F)F)cc2Cl)c1 | 3.5 | 8.1 | 12.6 | 43 | IC50 (human CRTH2; [10]): 1.1 nM; IC50 (DP; [11]): 26.6 nM
4 | CC1(NC(=O)c2ccc(Oc3cc(F)c(CC(=O)O)cc3Cl)c(NS(=O)(=O)c3ccc(C4CC4)cc3Cl)c2)CCC1 | 3.9 | 7.6 | 4.4 | 25.7 | –
5 | O=C(O)Cc1cc(Cl)c(Oc2ccc(C(=O)NC3CCC3)cc2NS(=O)(=O)c2ccc(C3CC3)cc2Cl)cc1F | 3.3 | 7.9 | 4.6 | 18 | IC50 (human CRTH2; [10]): 0.5 nM; IC50 (DP; [11]): 0.6 nM
6 | CC(C)(C)NC(=O)c1ccc(Oc2cc(F)c(CC(=O)O)cc2Cl)c(NS(=O)(=O)c2ccc(OC(F)(F)F)cc2Cl)c1 | 9.3 | 19.4 | 14.5 | 37.8 | IC50 (human CRTH2; [10]): 2 nM; IC50 (DP; [11]): 17.3 nM
7 | CC1(NC(=O)c2ccc(Oc3cc(F)c(CC(=O)O)cc3Cl)c(NS(=O)(=O)c3ccc(C(F)(F)F)cc3Cl)c2)CCC1 | 8.1 | 18.4 | 15.1 | 41.9 | –
8 | CC(C)(C)NC(=O)c1ccc(Oc2cc(F)c(CC(=O)O)cc2F)c(NS(=O)(=O)c2ccc(C3CC3)cc2Cl)c1 | 3 | 10 | 5 | 39 | –
9 | CC1(NC(=O)c2ccc(Oc3cc(F)c(CC(=O)O)cc3Cl)c(NS(=O)(=O)c3ccc(OC(F)(F)F)cc3Cl)c2)CCC1 | 6.2 | 15.7 | 10.7 | 31.9 | –
10 | Cc1ccc(S(=O)(=O)Nc2cc(C(=O)NC3(C)CCC3)ccc2Oc2cc(F)c(CC(=O)O)cc2Cl)c(Cl)c1 | 3.2 | 12.1 | 2.8 | 25.6 | –
11 | CCC(C)(C)NC(=O)c1ccc(Oc2cc(F)c(CC(=O)O)cc2Cl)c(NS(=O)(=O)c2ccc(C(F)(F)F)cc2Cl)c1 | 10 | 35.8 | 15.6 | 51.6 | –
12 | CCC(C)(C)NC(=O)c1ccc(Oc2cc(F)c(CC(=O)O)cc2Cl)c(NS(=O)(=O)c2ccc(C)cc2Cl)c1 | 4.9 | 10.9 | 3.9 | 21.8 | IC50 (DP; [11]): 18.3 nM
13 | Cc1ccc(S(=O)(=O)Nc2cc(C(=O)NC3CCC3)ccc2Oc2cc(F)c(CC(=O)O)cc2Cl)c(Cl)c1 | 1.3 | 7 | 2.2 | 22.9 | –
14 | CC(C)(C)NC(=O)c1ccc(Oc2cc(F)c(CC(=O)O)cc2Cl)c(NS(=O)(=O)c2ccc(Cl)cc2Cl)c1 | 5 | 13 | 18 | 79 | –
15 | CCCCNC(=O)c1ccc(Oc2ccc(CC(=O)O)cc2OC)c(NS(=O)(=O)c2ccc(Cl)cc2Cl)c1 [AMG 009] | – | – | – | – | covalent binding of radioactive equivalents to protein [1]: ~50 pmol equivalent/mg protein; covalent binding of radioactive equivalents to protein [2]: ~50 pmol equivalent/mg protein; antigen-induced late airway response ([3]; 7.5 mg/kg (multi-dose), FIG. 3A): inhibits; antigen-induced development of airway hyperreactivity to carbochol ([3]; 7.5 mg/kg (multi-dose), FIG. 3B): inhibits; antigen-induced late airway response ([3]; 7.5 mg/kg (single dose), FIG. 1A): inhibits; antigen-induced development of airway hyperreactivity to carbochol ([3]; 7.5 mg/kg (single dose), FIG. 1B): inhibits; antigen-induced late airway response ([3]; 15 mg/kg (single dose), FIG. 2A): inhibits; antigen-induced development of airway hyperreactivity to carbochol ([3]; 15 mg/kg (single dose), FIG. 2B): inhibits; allergen-induced recruitment of inflammatory cells to the lung (BAL) ([3]; sheep airway response model): blocked; also recorded: effective in blocking; antigen-induced development of airway hyper-reactivity (AHR) to carbachol ([3]; sheep airway response model): blocks; antigen-induced late airway response (LAR) ([3]; sheep airway response model): inhibits
16 | CC(C)(C)NC(=O)c1ccc(Oc2cc(F)c(CC(=O)O)cc2Cl)c(NS(=O)(=O)c2ccc(C3CC3)cc2Cl)c1 [Example Compound 14, 2-(4-(4-(tert-butylcarbamoyl)-2-(2-chloro-4-cyclopropylphenylsulfonamido)phenoxy)-5-chloro-2-fluorophenyl)acetic acid] | – | – | – | – | response in Guinea Pig Model [4]: dose-dependent response
17 | CC(C)(C)NC(=O)c1ccc(Oc2cc(F)c(CC(=O)O)cc2Cl)c(NS(=O)(=O)c2ccc(C3CC3)cc2Cl)c1 [Form II, 2-(4-(4-(tert-butylcarbamoyl)-2-(2-chloro-4-cyclopropylphenylsulfonamido)phenoxy)-5-chloro-2-fluorophenyl)acetic acid] | – | – | – | – | hygroscopicity [5]: non hygroscopic
18 | CC(C)(C)NC(=O)c1ccc(Oc2cc(F)c(CC(=O)O)cc2Cl)c(NS(=O)(=O)c2ccc(C3CC3)cc2Cl)c1 [drawing 69] | 3 | 8 | 3 | 26 | IC50 (human CRTH2; [10]): 0.2 nM; IC50 (DP; [11]): 1 nM
19 | CCNC(=O)c1ccc(Oc2ccc(CC(=O)O)cc2Cl)c(NS(=O)(=O)c2ccc(Cl)cc2Cl)c1 [reference compound] | 2.2 | 71 | 12 | – | –
20 | CCNC(=O)c1ccc(Oc2ccc(CC(=O)O)cc2Cl)c(NS(=O)(=O)c2ccc(OC)cc2)c1 [reference compound] | 2.7 | 16.7 | – | – | –
21 | CCNC(=O)c1ccc(Oc2ccc(CC(=O)O)cc2Cl)c(NS(=O)(=O)c2ccc(C)cc2)c1 [reference compound] | 2.3 | 26 | – | – | –
22 | CCNC(=O)c1ccc(Oc2ccc(CC(=O)O)cc2)c(NS(=O)(=O)c2ccc(Cl)cc2Cl)c1 [reference compound] | 4 | 92 | 120 | 8420 | –
23 | CCCCNC(=O)c1ccc(Oc2ccc(CC(=O)O)cc2Cl)c(NS(=O)(=O)c2ccc(Cl)cc2)c1 [reference compound] | – | – | 9.1 | 100 | –
24 | CCNC(=O)c1ccc(Oc2cc(Br)c(CC(=O)O)cc2OC)c(NS(=O)(=O)c2ccc(F)cc2F)c1 [reference compound] | 1.6 | 25.7 | > 1e+06 | – | –
